Consider 34 substances from patent US9597407B2, “Targeted antimicrobial moieties” (C3 Jian, Inc., priority 2009, dated 2017).

In this assay the test system is microorganisms. As to the kind of experiment: Morphology, biofilm and growth disruption by peptides (Table 5). It counts as cell-based. More on the design: key: A: Peptide aggregates; B: Less hyphal formation; Clumps; Diffuse clumps and small polyps; F: Diffuse growth; H: Thin; I: Growth inhibition; Microcolony formation; Rippled; Small polyps; Thick; W: Halo formation on top, microlonies on bottom. An excerpt:
In certain embodiments peptides that induce alterations in phenotype or other biological activities can also be used as antimicrobial effector moieties.

Regarding “PF-139 (ALSKPAIQARTLCRRQDPP; Peptide with targeting and/or antimicrobial activity)”, the “Organism, effect” value by setting is: (C. jeikeium) “C. jeikeium (R)”; (M. luteus) “M. luteus (C)”; (S. epidermidis) “S. epidermidis (M)”.

For the substance “PF-140 (FHRRVIRASEWALTTRSFSTPLRSAAR; Peptide with targeting and/or antimicrobial activity)”, the “Organism, effect” value (C. albicans) is recorded as “C. albicans (B)”; the “Organism, effect” value (C. jeikeium) was “C. jeikeium (D)”; the “Organism, effect” value (C. jejuni) was “C. jejuni (D)”; the “Organism, effect” value (M. luteus) is on record as “M. luteus (R)”; the “Organism, effect” value (MRSA) was “MRSA (M)”; the “Organism, effect” value (P. aeruginosa) is reported as “P. aeruginosa (A)”. Moreover, the “Organism, effect” value runs as follows: (S. epidermidis) “S. epidermidis (D)”; (S. pneumoniae) “S. pneumoniae (D)”.

Consider “PF-145 (GIVLTGRAGLVSGACSMALGVGLG; Peptide with targeting and/or antimicrobial activity)”, for which the “Organism, effect” value runs as follows: (B. subtilis) “B. subtilis (C)”; (C. jeikeium) “C. jeikeium (R)”; (C. jejuni) “C. jejuni (R)”; (M. luteus) “M. luteus (A)”; (MRSA) “MRSA (M)”; (S. epidermidis) “S. epidermidis (D)”. The “Organism, effect” value (S. pneumoniae) is given as “S. pneumoniae (R)”.

For “PF-157 (HTAVVWLAGVSGCVALSHCEPA; Peptide with targeting and/or antimicrobial activity)”, the “Organism, effect” value (S. epidermidis) is recorded as “S. epidermidis (M)”.

As for “PF-178 (EVYSSPTNNVAITVQNN; Peptide with targeting and/or antimicrobial activity)”, the “Organism, effect” value (E. coli) was “E. coli (C)”; the “Organism, effect” value (MRSA) was “MRSA (M)”; the “Organism, effect” value (S. epidermidis) is “S. epidermidis (D)”; the “Organism, effect” value (S. pneumoniae) was “S. pneumoniae (D)”.

As to “PF-190 (HFILRKPLLFMIHSLKTGPLDRF; Peptide with targeting and/or antimicrobial activity)”, the “Organism, effect” value runs as follows: (C. jeikeium) “C. jeikeium (R)”; (S. epidermidis) “S. epidermidis (C)”.

Consider “PF-196 (TTARYIRRQCHTSITPLSQG; Peptide with targeting and/or antimicrobial activity)”, for which the “Organism, effect” value is, setting by setting: (C. jeikeium) “C. jeikeium (R)”; (S. epidermidis) “S. epidermidis (C)”.

Turning to “PF-199 (FPAFSFGAIAGSVSVAR; Peptide with targeting and/or antimicrobial activity)”, the “Organism, effect” value by setting is: (C. jeikeium) “C. jeikeium (R)”; (M. luteus) “M. luteus (A)”; (S. epidermidis) “S. epidermidis (C)”.

As to “PF-203 (SWKCHHLAI; Peptide with targeting and/or antimicrobial activity)”, the “Organism, effect” value runs as follows: (C. jeikeium) “C. jeikeium (R)”; (S. epidermidis) “S. epidermidis (A)”.

In the case of “PF-220 (VDPADDGTRHIRPEDGDPIEIDE; Peptide with targeting and/or antimicrobial activity)”, the “Organism, effect” value (S. pneumoniae) was “S. pneumoniae (H)”.

With “PF-250 (SEDIFGRLANEKANGLEELRKIRLKQ; Peptide with targeting and/or antimicrobial activity)”, under “M. luteus”, the “Organism, effect” value is reported as “M. luteus (T)”.

With “PF-264 (MQSLSNRQSLIASYILMGIFLSFGYPPASLSKFFCRLSHL; Peptide with targeting and/or antimicrobial activity)”, under “M. luteus”, the “Organism, effect” value is on record as “M. luteus (H)”.

For the substance “PF-274 (SIQEAEKIIKNDPFYIHDVADYDFMWFEPSKSLEEIKEFV; Peptide with targeting and/or antimicrobial activity)”, the “Organism, effect” value (M. luteus) is “M. luteus (M)”.

For the substance “PF-290 (MVHDMTNGTLIIVKH; Peptide with targeting and/or antimicrobial activity)”, where the note is “S. epidermidis”, the “Organism, effect” value is on record as “S. epidermidis (C)”.

As for “PF-293 (YDPLK; Peptide with targeting and/or antimicrobial activity)”, the “Organism, effect” value (S. epidermidis) is given as “S. epidermidis (C)”.

As to “PF-296 (GAFGMPSIKTNTICGEKGKFISACDAWLSNLK; Peptide with targeting and/or antimicrobial activity)”, the “Organism, effect” value is reported as “B. subtilis (C)” (B. subtilis) and “S. epidermidis (C)” (S. epidermidis).

On to “PF-303 (EYPWSWISEPWPWDKSFYK; Peptide with targeting and/or antimicrobial activity)”, for which the “Organism, effect” value (B. subtilis) was “B. subtilis (C)”.

In the case of “PF-310 (GVALIGTILVPLLSGLFG; Peptide with targeting and/or antimicrobial activity)”, the “Organism, effect” value (S. epidermidis) is recorded as “S. epidermidis (C)”.

As for “PF-318 (MGRHLWNPSYFVATVSENTEEQIRKYINNQKKQVK; Peptide with targeting and/or antimicrobial activity)”, the “Organism, effect” value was “B. subtilis (C)” (B. subtilis) and “S. epidermidis (C)” (S. epidermidis).

On to “PF-335 (AAYPIEDWSDWYEDFFIMLSNI; Peptide with targeting and/or antimicrobial activity)”, for which the “Organism, effect” value is, setting by setting: (B. subtilis) “B. subtilis (C)”; (S. epidermidis) “S. epidermidis (C)”.

In the case of “PF-339 (KKIDILINKYMYLSK; Peptide with targeting and/or antimicrobial activity)”, the “Organism, effect” value by setting is: (B. subtilis) “B. subtilis (C)”; (S. epidermidis) “S. epidermidis (C)”.

On to “PF-342 (AFSGVYKTLIVYTRRK; Peptide with targeting and/or antimicrobial activity)”, for which the “Organism, effect” value (B. subtilis) was “B. subtilis (C)” and the “Organism, effect” value (S. epidermidis) was “S. epidermidis (C)”.

With “PF-347 (GIFTGVTVVVSLKHC; Peptide with targeting and/or antimicrobial activity)”, the “Organism, effect” value (E. coli) is reported as “E. coli (C)”; the “Organism, effect” value (E. faecalis) is recorded as “E. faecalis (C)”; the “Organism, effect” value (MRSA) is “MRSA (C)”; the “Organism, effect” value (S. epidermidis) was “S. epidermidis (C)”.

In the case of “PF-398 (ILVVLAGILLVVLSYVGISKFKMNC; Peptide with targeting and/or antimicrobial activity)”, the “Organism, effect” value by setting is: (E. coli) “E. coli (C)”; (E. faecalis) “E. faecalis (C)”; (MRSA) “MRSA (C)”; (S. epidermidis) “S. epidermidis (C)”.

As to “PF-399 (FPIISALLGAIICIAIYSFIVNRKA; Peptide with targeting and/or antimicrobial activity)”, the “Organism, effect” value by setting is: (E. coli) “E. coli (C)”; (E. faecalis) “E. faecalis (C)”; (MRSA) “MRSA (C)”; (S. epidermidis) “S. epidermidis (C)”.

For the substance “PF-407 (KPKNKKEKTVISYEKLLSMY; Peptide with targeting and/or antimicrobial activity)”, the “Organism, effect” value (E. faecalis) is “E. faecalis (R)”; the “Organism, effect” value (MRSA) is listed as “MRSA (C)”; the “Organism, effect” value (S. epidermidis) is “S. epidermidis (M)”; the “Organism, effect” value (S. pneumoniae) is listed as “S. pneumoniae (R)”.

On to “PF-410 (FALELIALCRNLFIVYFP; Peptide with targeting and/or antimicrobial activity)”, for which the “Organism, effect” value reads like this: (E. coli) “E. coli (S)”; (E. faecalis) “E. faecalis (C)”; (MRSA) “MRSA (M)”; (S. epidermidis) “S. epidermidis (C)”.

As for “PF-411 (WVAVAILLNIALQTQLT; Peptide with targeting and/or antimicrobial activity)”, the “Organism, effect” value by setting is: (C. jejuni) “C. jejuni (D)”; (E. coli) “E. coli (C)”; (E. faecalis) “E. faecalis (D)”; (MRSA) “MRSA (D)”; (P. aeruginosa) “P. aeruginosa (A)”; (S. epidermidis) “S. epidermidis (C)”. In addition, the “Organism, effect” value (S. pneumoniae) is “S. pneumoniae (D)”.

Consider “PF-415 (MIDVTIGQKSKTGAFNASYSICFSGENFSF; Peptide with targeting and/or antimicrobial activity)”, for which the “Organism, effect” value (S. pneumoniae) is listed as “S. pneumoniae (D)”.

Regarding “PF-418 (FFLVHFYIRKRKGKVSIFLNYF; Peptide with targeting and/or antimicrobial activity)”, the “Organism, effect” value (C. jejuni) is recorded as “C. jejuni (D)”; the “Organism, effect” value (E. coli) is “E. coli (C)”; the “Organism, effect” value (E. faecalis) is given as “E. faecalis (D)”; the “Organism, effect” value (MRSA) is “MRSA (D)”; the “Organism, effect” value (S. epidermidis) was “S. epidermidis (M)”; the “Organism, effect” value (S. pneumoniae) is given as “S. pneumoniae (D)”.

For the substance “PF-419 (VVTGKVGSLPQIK; Peptide with targeting and/or antimicrobial activity)”, where the note is “S. pneumoniae”, the “Organism, effect” value is “S. pneumoniae (H)”.

As for “PF-431 (VAYAAICWW; Peptide with targeting and/or antimicrobial activity)”, the “Organism, effect (morphology, biofilm and growth disruption)” value by setting is: (C. jejuni) “C. jejuni (R)”; (E. faecalis) “E. faecalis (R)”; (MRSA) “MRSA (C)”; (S. epidermidis) “S. epidermidis (M)”; (S. pneumoniae) “S. pneumoniae (R)”.

With “PF-432 (FNGDSEFFLCIAF; Peptide with targeting and/or antimicrobial activity)”, the “Organism, effect (morphology, biofilm and growth disruption)” value (C. jejuni) was “C. jejuni (D)”; the “Organism, effect (morphology, biofilm and growth disruption)” value (E. coli) is reported as “E. coli (R)”; the “Organism, effect (morphology, biofilm and growth disruption)” value (E. faecalis) is given as “E. faecalis (D)”; the “Organism, effect (morphology, biofilm and growth disruption)” value (MRSA) is “MRSA (M)”; the “Organism, effect (morphology, biofilm and growth disruption)” value (P. aeruginosa) is on record as “P. aeruginosa (A)”; the “Organism, effect (morphology, biofilm and growth disruption)” value (S. epidermidis) is reported as “S. epidermidis (M)”. For the same substance, the “Organism, effect (morphology, biofilm and growth disruption)” value (S. pneumoniae) was “S. pneumoniae (D)”.

For “PF-449 (MPTTKSKQKGWTNTKKASNTQ; Peptide with targeting and/or antimicrobial activity)”, the “Organism, effect (morphology, biofilm and growth disruption)” value (S. pneumoniae) is recorded as “S. pneumoniae (H)”.
